Some test systems named below: BT-549 breast; CAKI-1 renal; HL-60(TB) leukemia; KM12 colon; LOX IMVI melanoma; PC-3 prostate; RXF 393 renal; SF-295 CNS; SK-OV-3 ovarian; SNB-19 CNS.
Holding throughout (assay): growth of human tumour cells (NCI), 48 h

For 7 compounds, GI50 and TGI results are on record in PubChem BioAssay (NCI).

Where “and” joins values, the source holds several entries; their conditions need not be identical. Equal values may be shown once.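 1) Cells in 96-well plates. 2) Compound, 48 h, 5 concentrations. 3) Linear interpolation between surrounding doses. 4) Unreached endpoint = highest concentration. GI50: concentration for 50% inhibition of growth. Definition used: TGI = concentration required for complete inhibition of growth.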

Take `NC(N)=N/N=C\c1cccc(OCc2ccccc2)c1`: the GI50 was 15 µM in the experiment on BT-549 breast; 7.5 µM in the experiment with CAKI-1 renal; 2.66 µM in the experiment on HL-60(TB) leukemia; 2.41 µM with KM12 colon; 1780 nM with LOX IMVI melanoma; 11.2 µM in the experiment on PC-3 prostate. For the same compound, the GI50 in the experiment with RXF 393 renal was 2.54 µM; in the experiment with SF-295 CNS, 4.64 µM; with SK-OV-3 ovarian, 10.5 µM; in the experiment on SNB-19 CNS it was 10.3 µM. The TGI in the experiment on BT-549 breast stood at 28.4 µM; in the experiment with CAKI-1 renal, 22.2 µM; with HL-60(TB) leukemia, 6.35 µM; in the experiment on KM12 colon it was 8.33 µM; in the experiment on LOX IMVI melanoma, 3.4 µM; in the experiment on PC-3 prostate, 25.1 µM. Moreover, the TGI with RXF 393 renal worked out at 6.64 µM; in the experiment on SF-295 CNS, 20.4 µM; in the experiment on SK-OV-3 ovarian it was 22.3 µM; in the experiment on SNB-19 CNS, 23.3 µM.
On to `O=C1CCCCCCCC/C=C\CC(c2ccco2)O1` (centres undefined), for which the GI50 was 28.6 µM with BT-549 breast; 49.4 µM in the experiment with CAKI-1 renal; 12 µM in the experiment with HL-60(TB) leukemia; 28.5 µM in the experiment on KM12 colon; 32300 nM in the experiment on LOX IMVI melanoma; 36.3 µM in the experiment on PC-3 prostate. The GI50 was 21.5 µM in the experiment on RXF 393 renal, 25.4 µM in the experiment on SF-295 CNS, 32.7 µM in the experiment on SK-OV-3 ovarian and 13.1 µM in the experiment with SNB-19 CNS. The TGI with BT-549 breast is > 100 µM; in the experiment on CAKI-1 renal it was > 100 µM; in the experiment with HL-60(TB) leukemia, 31 µM; in the experiment with KM12 colon it was > 100 µM; in the experiment on LOX IMVI melanoma, 51.6 µM; in the experiment on PC-3 prostate, > 100 µM. Also, the TGI in the experiment on RXF 393 renal is 65.2 µM; in the experiment on SF-295 CNS, > 100 µM; in the experiment with SK-OV-3 ovarian it was > 100 µM; in the experiment on SNB-19 CNS, 40.3 µM.
Take `COc1ncc(-c2ccc3nccc(-c4ccnnc4)c3c2)cc1NS(=O)(=O)c1ccc(F)cc1F`: the GI50 is 0.00392 µM and < 0.01 µM in the experiment on BT-549 breast; 0.00521 µM and < 0.01 µM in the experiment on CAKI-1 renal; 0.0224 µM and < 0.01 µM with HL-60(TB) leukemia; 0.033 µM and 0.0302 µM with KM12 colon; 7.58 nM and < 10.6 nM in the experiment on LOX IMVI melanoma; 0.00432 µM and < 0.01 µM in the experiment on PC-3 prostate. Besides, the GI50 with RXF 393 renal is 0.0048 µM and < 0.01 µM; in the experiment on SF-295 CNS it was 0.00537 µM and < 0.01 µM; in the experiment on SK-OV-3 ovarian it was 0.00188 µM and < 0.01 µM; in the experiment on SNB-19 CNS, 0.0397 µM and 0.0127 µM. The TGI is 0.0688 µM and 0.0434 µM in the experiment on BT-549 breast; 0.746 µM and 1.7 µM with CAKI-1 renal; > 4.01 µM and 1.21 µM with HL-60(TB) leukemia; 1.53 µM and 1.58 µM with KM12 colon; 1.12 µM and 1.26 µM with LOX IMVI melanoma; 2.37 µM and 4.46 µM in the experiment on PC-3 prostate. For the same compound, the TGI was 0.0436 µM and 0.0351 µM in the experiment on RXF 393 renal; 0.0595 µM and 0.0299 µM in the experiment on SF-295 CNS; 0.0204 µM and 0.0377 µM in the experiment with SK-OV-3 ovarian.
In the case of `COC(=O)C1=C(C(=O)ON)C2C=CC1(C(Cc1ccccc1)Nc1ccccc1)O2` (centres undefined), the GI50 is 2.07 µM in the experiment on BT-549 breast; 1.63 µM with CAKI-1 renal; 2.89 µM in the experiment with HL-60(TB) leukemia; 15.1 µM with KM12 colon; 1740 nM in the experiment on LOX IMVI melanoma; 5.58 µM in the experiment with PC-3 prostate. For the same compound, the GI50 is 1.78 µM in the experiment on RXF 393 renal, 13.8 µM with SF-295 CNS, 14.8 µM with SK-OV-3 ovarian and 14.8 µM in the experiment on SNB-19 CNS. In addition, the TGI turned out to be 4.87 µM in the experiment on BT-549 breast; 3.03 µM with CAKI-1 renal; 10.1 µM with HL-60(TB) leukemia; 30 µM in the experiment with KM12 colon; 3.24 µM with LOX IMVI melanoma; 19.9 µM in the experiment with PC-3 prostate. In addition, the TGI with RXF 393 renal worked out at 3.2 µM; in the experiment on SF-295 CNS, 26.7 µM; in the experiment on SK-OV-3 ovarian, 28 µM; in the experiment with SNB-19 CNS it was 27.9 µM.
Regarding `O=C1C(=O)c2ccccc2C(O)=C1CC=C(Br)Br`, the GI50 was 11.3 µM with BT-549 breast; 3.38 µM with CAKI-1 renal; 5.37 µM with HL-60(TB) leukemia; 3.14 µM with KM12 colon; 1340 nM in the experiment with LOX IMVI melanoma; 3.05 µM in the experiment on PC-3 prostate. For the same compound, the GI50 in the experiment on RXF 393 renal is 14.3 µM; in the experiment with SF-295 CNS it was 3.29 µM; in the experiment with SK-OV-3 ovarian, 10.5 µM; in the experiment on SNB-19 CNS, 4.67 µM. The TGI with BT-549 breast was 71.9 µM; with CAKI-1 renal it was > 100 µM; in the experiment on HL-60(TB) leukemia, 30.4 µM; in the experiment with KM12 colon, 64.9 µM; with LOX IMVI melanoma it was 27.6 µM; with PC-3 prostate, 91.5 µM. The TGI in the experiment with RXF 393 renal was 80.7 µM; in the experiment with SF-295 CNS, > 100 µM; in the experiment with SK-OV-3 ovarian, 59.8 µM; in the experiment on SNB-19 CNS, 77.8 µM.
As for `c1ccc2[nH]c(-c3ccc(NN=Nc4ccncc4)cc3)nc2c1`, the GI50 in the experiment with BT-549 breast was 4.39 µM; with CAKI-1 renal it was 5.2 µM; in the experiment on HL-60(TB) leukemia, > 100 µM; with KM12 colon, 23 µM; in the experiment with LOX IMVI melanoma it was 6590 nM; in the experiment with PC-3 prostate, 33 µM. The GI50 in the experiment with RXF 393 renal is 58.1 µM; in the experiment with SF-295 CNS, 16.4 µM; in the experiment on SK-OV-3 ovarian it was > 100 µM; with SNB-19 CNS, > 100 µM. In addition, the TGI is > 100 µM in the experiment with BT-549 breast; > 100 µM in the experiment with CAKI-1 renal; > 100 µM with HL-60(TB) leukemia; > 100 µM in the experiment with KM12 colon; 38.4 µM in the experiment with LOX IMVI melanoma; > 100 µM with PC-3 prostate. Moreover, the TGI in the experiment with RXF 393 renal, in the experiment on SF-295 CNS, in the experiment with SK-OV-3 ovarian and in the experiment on SNB-19 CNS was > 100 µM in each case.
For the compound `COc1ccccc1CCN=C1NC(=O)/C(=C/c2ccc3ncccc3c2)S1`, the GI50 in the experiment on BT-549 breast is 6.22 µM; in the experiment with CAKI-1 renal, 3.52 µM; with HL-60(TB) leukemia, 4.2 µM; in the experiment on KM12 colon, 3.34 µM; in the experiment on LOX IMVI melanoma it was 3150 nM; with PC-3 prostate, 4.54 µM. Also, the GI50 in the experiment on RXF 393 renal is 5.5 µM; with SF-295 CNS, 5.86 µM; in the experiment on SK-OV-3 ovarian, 5.67 µM; in the experiment on SNB-19 CNS, 4.93 µM. Further, the TGI with BT-549 breast is > 20.5 µM; in the experiment on CAKI-1 renal it was > 15.6 µM; with HL-60(TB) leukemia it was 14.7 µM; in the experiment on KM12 colon it was > 25 µM; in the experiment on LOX IMVI melanoma, 18.2 µM; in the experiment on PC-3 prostate it was > 25 µM. The TGI in the experiment with RXF 393 renal is 16.9 µM; in the experiment on SF-295 CNS, > 21.8 µM; in the experiment with SK-OV-3 ovarian it was 14.4 µM; in the experiment on SNB-19 CNS it was > 25 µM.
